Key:
[1] = biological target: Cannabinoid receptor 1 (Homo sapiens) (UniProt P21554); assay: CB1 (h) Eurofins-Cerep Cellular and Nuclear Receptor Functional Assays; conditions: Compound concentration 10.0 uM
[2] = system: Tyrosine-protein kinase ABL1 (Homo sapiens), P00519 [T315I]; conditions: Compound concentration 1000.0 nM
[3] = biological target: Activin receptor type-1B (Homo sapiens) (UniProt P36896); conditions: Compound concentration 1000.0 nM
[4] = biological target: Activin receptor type-2A (Homo sapiens) (UniProt P27037); conditions: Compound concentration 1000.0 nM
[5] = biological target: Aurora kinase C (Homo sapiens) (UniProt Q9UQB9); conditions: Compound concentration 1000.0 nM
[6] = biological target: Cyclin-dependent kinase 3 (Homo sapiens) (UniProt Q00526); conditions: Compound concentration 1000.0 nM
[7] = biological target: Cyclin-dependent kinase 4 (Homo sapiens) (UniProt P11802); conditions: Compound concentration 1000.0 nM
[8] = biological target: Dual specificity protein kinase CLK3 (Homo sapiens) (UniProt P49761); conditions: Compound concentration 1000.0 nM
[9] = biological target: Death-associated protein kinase 2 (Homo sapiens) (UniProt Q9UIK4); conditions: Compound concentration 1000.0 nM
Chain of Death-associated protein kinase 2 (Homo sapiens) (Q9UIK4 whole entry, looked up): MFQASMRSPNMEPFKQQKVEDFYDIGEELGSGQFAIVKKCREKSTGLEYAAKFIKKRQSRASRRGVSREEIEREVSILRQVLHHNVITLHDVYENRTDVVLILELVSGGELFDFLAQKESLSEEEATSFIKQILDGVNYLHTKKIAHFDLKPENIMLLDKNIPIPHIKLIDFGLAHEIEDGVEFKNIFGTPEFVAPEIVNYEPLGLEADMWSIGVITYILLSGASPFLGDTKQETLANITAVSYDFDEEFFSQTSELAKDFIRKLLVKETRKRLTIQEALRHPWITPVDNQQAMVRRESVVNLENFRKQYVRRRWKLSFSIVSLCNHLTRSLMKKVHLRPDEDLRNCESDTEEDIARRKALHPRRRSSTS

[10] = biological target: Serine/threonine-protein kinase DCLK2 (Homo sapiens) (UniProt Q8N568); conditions: Compound concentration 1000.0 nM
[11] = biological target: Serine/threonine-protein kinase 17A (Homo sapiens) (UniProt Q9UEE5); conditions: Compound concentration 1000.0 nM
[12] = biological target: Eukaryotic translation initiation factor 2-alpha kinase 1 (Homo sapiens) (UniProt Q9BQI3); conditions: Compound concentration 1000.0 nM
Chain of Eukaryotic translation initiation factor 2-alpha kinase 1 (Homo sapiens) (Q9BQI3 whole entry): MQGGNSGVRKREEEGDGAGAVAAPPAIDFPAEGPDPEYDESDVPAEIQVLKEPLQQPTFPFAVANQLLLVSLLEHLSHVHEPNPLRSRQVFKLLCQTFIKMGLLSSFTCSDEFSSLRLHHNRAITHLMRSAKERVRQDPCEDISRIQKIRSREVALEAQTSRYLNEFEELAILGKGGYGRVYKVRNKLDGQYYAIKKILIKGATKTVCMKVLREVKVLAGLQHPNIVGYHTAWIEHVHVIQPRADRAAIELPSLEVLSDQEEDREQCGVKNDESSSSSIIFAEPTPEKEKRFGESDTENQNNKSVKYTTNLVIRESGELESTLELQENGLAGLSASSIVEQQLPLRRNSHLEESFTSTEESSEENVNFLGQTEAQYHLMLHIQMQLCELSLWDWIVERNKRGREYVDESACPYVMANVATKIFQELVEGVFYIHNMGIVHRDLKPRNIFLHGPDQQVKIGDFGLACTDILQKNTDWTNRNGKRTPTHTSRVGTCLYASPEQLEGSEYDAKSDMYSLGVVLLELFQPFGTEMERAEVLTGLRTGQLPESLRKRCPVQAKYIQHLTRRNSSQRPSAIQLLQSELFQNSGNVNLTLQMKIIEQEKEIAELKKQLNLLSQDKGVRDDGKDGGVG

[13] = biological target: Ephrin type-B receptor 3 (Homo sapiens) (UniProt P54753); conditions: Compound concentration 1000.0 nM
[14] = biological target: Ephrin type-B receptor 4 (Homo sapiens) (UniProt P54760); conditions: Compound concentration 1000.0 nM
[15] = biological target: Mitogen-activated protein kinase 1 (Homo sapiens) (UniProt P28482); conditions: Compound concentration 1000.0 nM
[16] = biological target: Vascular endothelial growth factor receptor 1 (Homo sapiens) (UniProt P17948); conditions: Compound concentration 1000.0 nM
[17] = system: Receptor-type tyrosine-protein kinase FLT3 (Homo sapiens), P36888 [D835H]; conditions: Compound concentration 1000.0 nM
[18] = biological target: G protein-coupled receptor kinase 3 (Homo sapiens) (UniProt P35626); conditions: Compound concentration 1000.0 nM
[19] = biological target: G protein-coupled receptor kinase 4 (Homo sapiens) (UniProt P32298); conditions: Compound concentration 1000.0 nM
[20] = biological target: Mitogen-activated protein kinase kinase kinase kinase 1 (Homo sapiens) (UniProt Q92918); conditions: Compound concentration 1000.0 nM
[21] = biological target: Serine/threonine-protein kinase ICK (Homo sapiens) (UniProt Q9UPZ9); conditions: Compound concentration 1000.0 nM
[22] = biological target: Insulin receptor-related protein (Homo sapiens) (UniProt P14616); conditions: Compound concentration 1000.0 nM
[23] = biological target: Tyrosine-protein kinase JAK1 (Homo sapiens) (UniProt P23458); conditions: Compound concentration 1000.0 nM
[24] = system: Mast/stem cell growth factor receptor Kit (Homo sapiens), P10721 [V559D]; conditions: Compound concentration 1000.0 nM
[25] = biological target: Serine/threonine-protein kinase LATS2 (Homo sapiens) (UniProt Q9NRM7); conditions: Compound concentration 1000.0 nM
[26] = biological target: Leucine-rich repeat serine/threonine-protein kinase 2 (Homo sapiens) (UniProt Q5S007); conditions: Compound concentration 1000.0 nM
Chain of Leucine-rich repeat serine/threonine-protein kinase 2 (Homo sapiens) (Q5S007 whole entry): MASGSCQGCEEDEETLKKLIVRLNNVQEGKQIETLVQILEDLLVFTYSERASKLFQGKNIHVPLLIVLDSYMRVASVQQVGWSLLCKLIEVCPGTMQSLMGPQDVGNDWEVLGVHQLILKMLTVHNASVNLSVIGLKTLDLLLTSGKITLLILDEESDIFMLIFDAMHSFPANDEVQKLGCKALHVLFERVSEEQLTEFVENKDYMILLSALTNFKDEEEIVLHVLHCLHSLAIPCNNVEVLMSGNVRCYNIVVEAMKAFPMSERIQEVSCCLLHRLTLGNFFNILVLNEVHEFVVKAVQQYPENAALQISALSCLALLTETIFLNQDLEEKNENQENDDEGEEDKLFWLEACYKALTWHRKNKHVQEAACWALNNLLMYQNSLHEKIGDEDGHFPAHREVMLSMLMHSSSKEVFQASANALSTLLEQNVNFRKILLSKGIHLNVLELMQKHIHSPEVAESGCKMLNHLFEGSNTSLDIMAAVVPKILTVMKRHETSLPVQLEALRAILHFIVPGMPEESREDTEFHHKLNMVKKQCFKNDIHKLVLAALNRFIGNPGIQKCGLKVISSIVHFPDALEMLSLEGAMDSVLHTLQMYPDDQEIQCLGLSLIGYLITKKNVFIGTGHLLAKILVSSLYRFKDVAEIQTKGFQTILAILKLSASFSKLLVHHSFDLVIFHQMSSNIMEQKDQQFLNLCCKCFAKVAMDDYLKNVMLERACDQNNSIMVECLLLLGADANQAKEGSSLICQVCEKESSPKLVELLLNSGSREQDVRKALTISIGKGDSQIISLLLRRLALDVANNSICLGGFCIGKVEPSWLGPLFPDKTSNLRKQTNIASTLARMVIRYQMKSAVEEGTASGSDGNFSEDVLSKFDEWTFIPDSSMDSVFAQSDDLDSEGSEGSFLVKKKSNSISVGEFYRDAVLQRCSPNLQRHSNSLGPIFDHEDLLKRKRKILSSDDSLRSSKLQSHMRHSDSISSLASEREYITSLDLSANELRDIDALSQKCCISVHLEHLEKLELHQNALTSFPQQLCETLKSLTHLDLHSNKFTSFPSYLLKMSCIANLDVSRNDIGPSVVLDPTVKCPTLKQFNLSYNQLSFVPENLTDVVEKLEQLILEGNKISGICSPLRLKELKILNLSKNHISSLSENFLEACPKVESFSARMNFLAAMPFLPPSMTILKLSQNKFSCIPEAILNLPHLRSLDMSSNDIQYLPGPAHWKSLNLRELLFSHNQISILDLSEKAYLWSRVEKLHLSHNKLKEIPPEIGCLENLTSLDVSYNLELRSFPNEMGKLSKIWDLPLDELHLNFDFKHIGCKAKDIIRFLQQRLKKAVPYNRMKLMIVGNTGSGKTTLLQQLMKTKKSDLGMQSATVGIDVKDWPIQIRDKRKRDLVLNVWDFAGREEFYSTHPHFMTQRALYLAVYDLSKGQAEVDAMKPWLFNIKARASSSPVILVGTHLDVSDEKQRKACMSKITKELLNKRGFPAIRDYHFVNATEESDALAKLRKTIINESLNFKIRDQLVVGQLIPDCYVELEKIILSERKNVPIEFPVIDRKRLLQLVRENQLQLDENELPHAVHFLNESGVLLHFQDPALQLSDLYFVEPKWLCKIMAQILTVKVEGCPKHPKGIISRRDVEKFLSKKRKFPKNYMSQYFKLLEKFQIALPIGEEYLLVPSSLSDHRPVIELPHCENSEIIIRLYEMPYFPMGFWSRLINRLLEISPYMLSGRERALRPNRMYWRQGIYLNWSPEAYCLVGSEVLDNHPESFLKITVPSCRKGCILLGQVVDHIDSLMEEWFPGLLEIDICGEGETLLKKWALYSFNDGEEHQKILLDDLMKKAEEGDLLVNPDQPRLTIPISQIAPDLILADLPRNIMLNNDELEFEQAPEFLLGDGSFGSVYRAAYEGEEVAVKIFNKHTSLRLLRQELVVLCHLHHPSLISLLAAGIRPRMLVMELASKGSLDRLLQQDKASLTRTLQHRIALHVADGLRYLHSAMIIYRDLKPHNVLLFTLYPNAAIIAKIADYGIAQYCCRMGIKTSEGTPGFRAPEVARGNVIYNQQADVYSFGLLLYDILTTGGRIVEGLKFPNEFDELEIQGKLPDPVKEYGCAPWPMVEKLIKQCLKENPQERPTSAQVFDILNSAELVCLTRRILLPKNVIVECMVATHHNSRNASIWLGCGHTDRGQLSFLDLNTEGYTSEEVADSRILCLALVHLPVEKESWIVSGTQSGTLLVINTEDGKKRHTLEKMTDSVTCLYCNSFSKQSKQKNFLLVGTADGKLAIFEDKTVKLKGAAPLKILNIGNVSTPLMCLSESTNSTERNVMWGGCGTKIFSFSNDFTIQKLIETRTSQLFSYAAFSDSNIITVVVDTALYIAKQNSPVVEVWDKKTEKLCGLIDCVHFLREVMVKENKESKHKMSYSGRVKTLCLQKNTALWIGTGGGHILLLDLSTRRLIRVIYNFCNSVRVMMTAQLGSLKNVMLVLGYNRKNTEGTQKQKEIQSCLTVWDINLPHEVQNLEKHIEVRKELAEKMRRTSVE

[27] = system: Leucine-rich repeat serine/threonine-protein kinase 2 (Homo sapiens), Q5S007 [G2019S]; conditions: Compound concentration 1000.0 nM
Chain of Leucine-rich repeat serine/threonine-protein kinase 2 (Homo sapiens), Q5S007 [G2019S] (Q5S007 whole entry G2019S): as the sequence (Q5S007 whole entry) above, with G2019S counted along it

[28] = biological target: Serine/threonine-protein kinase mTOR (Homo sapiens) (UniProt P42345); conditions: Compound concentration 1000.0 nM
[29] = biological target: Muscle, skeletal receptor tyrosine-protein kinase (Homo sapiens) (UniProt O15146); conditions: Compound concentration 1000.0 nM
[30] = biological target: Myosin light chain kinase family member 4 (Homo sapiens) (UniProt Q86YV6); conditions: Compound concentration 1000.0 nM
[31] = biological target: Myosin-IIIb (Homo sapiens) (UniProt Q8WXR4); conditions: Compound concentration 1000.0 nM
[32] = biological target: Serine/threonine-protein kinase NLK (Homo sapiens) (UniProt Q9UBE8); conditions: Compound concentration 1000.0 nM
[33] = biological target: Mitogen-activated protein kinase 11 (Homo sapiens) (UniProt Q15759); conditions: Compound concentration 1000.0 nM
[34] = biological target: Cyclin-dependent kinase 14 (Homo sapiens) (UniProt O94921); conditions: Compound concentration 1000.0 nM
[35] = biological target: Phosphatidylinositol 4-phosphate 3-kinase C2 domain-containing subunit beta (Homo sapiens) (UniProt O00750); conditions: Compound concentration 1000.0 nM
[36] = system: Phosphatidylinositol 4,5-bisphosphate 3-kinase catalytic subunit alpha isoform (Homo sapiens), P42336 [I800L]; conditions: Compound concentration 1000.0 nM
Chain of Phosphatidylinositol 4,5-bisphosphate 3-kinase catalytic subunit alpha isoform (Homo sapiens), P42336 [I800L] (P42336 whole entry I800L, canonical isoform): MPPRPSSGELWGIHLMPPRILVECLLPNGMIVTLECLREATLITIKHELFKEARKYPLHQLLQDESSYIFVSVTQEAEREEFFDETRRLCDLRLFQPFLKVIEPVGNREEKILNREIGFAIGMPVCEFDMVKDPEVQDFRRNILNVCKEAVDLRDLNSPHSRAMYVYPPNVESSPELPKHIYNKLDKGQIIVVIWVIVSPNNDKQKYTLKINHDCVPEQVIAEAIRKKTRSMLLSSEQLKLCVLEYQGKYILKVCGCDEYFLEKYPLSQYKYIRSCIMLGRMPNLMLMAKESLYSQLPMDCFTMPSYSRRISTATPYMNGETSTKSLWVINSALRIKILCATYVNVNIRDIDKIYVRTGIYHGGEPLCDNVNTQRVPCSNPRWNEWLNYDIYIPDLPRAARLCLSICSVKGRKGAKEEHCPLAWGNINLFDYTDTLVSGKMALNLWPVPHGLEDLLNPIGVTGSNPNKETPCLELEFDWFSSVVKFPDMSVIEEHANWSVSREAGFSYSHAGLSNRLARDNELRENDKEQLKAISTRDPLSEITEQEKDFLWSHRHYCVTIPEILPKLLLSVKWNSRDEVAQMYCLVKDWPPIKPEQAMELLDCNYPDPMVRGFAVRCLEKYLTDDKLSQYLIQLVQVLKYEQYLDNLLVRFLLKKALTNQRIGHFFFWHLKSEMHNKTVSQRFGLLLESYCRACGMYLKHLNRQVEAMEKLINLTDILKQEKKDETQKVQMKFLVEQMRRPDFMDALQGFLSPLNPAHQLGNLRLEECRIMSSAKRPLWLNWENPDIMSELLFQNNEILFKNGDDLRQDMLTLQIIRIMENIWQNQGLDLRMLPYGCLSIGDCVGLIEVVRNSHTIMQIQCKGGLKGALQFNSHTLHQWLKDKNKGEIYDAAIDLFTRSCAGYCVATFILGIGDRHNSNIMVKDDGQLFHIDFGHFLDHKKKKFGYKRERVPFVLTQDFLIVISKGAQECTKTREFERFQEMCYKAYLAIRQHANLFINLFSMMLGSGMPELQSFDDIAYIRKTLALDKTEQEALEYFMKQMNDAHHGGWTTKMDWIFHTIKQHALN

[37] = biological target: Serine/threonine-protein kinase pim-2 (Homo sapiens) (UniProt Q9P1W9); conditions: Compound concentration 1000.0 nM
[38] = biological target: Rho-associated protein kinase 1 (Homo sapiens) (UniProt Q13464); conditions: Compound concentration 1000.0 nM
[39] = biological target: Serine/threonine-protein kinase TNNI3K (Homo sapiens) (UniProt Q59H18); conditions: Compound concentration 1000.0 nM
[40] = biological target: Vascular endothelial growth factor receptor 2 (Homo sapiens) (UniProt P35968); conditions: Compound concentration 1000.0 nM
[41] = biological target: Serine/threonine-protein kinase WNK2 (Homo sapiens) (UniProt Q9Y3S1); conditions: Compound concentration 1000.0 nM
[42] = biological target: Serine/threonine-protein kinase WNK4 (Homo sapiens) (UniProt Q96J92); conditions: Compound concentration 1000.0 nM
[43] = biological target: Tyrosine-protein kinase Yes (Homo sapiens) (UniProt P07947); conditions: Compound concentration 1000.0 nM
[44] = biological target: D(3) dopamine receptor (Homo sapiens) (UniProt P35462); conditions: Compound concentration 10.0 uM
[45] = biological target: Sodium-dependent serotonin transporter (Homo sapiens) (UniProt P31645); conditions: Compound concentration 10.0 uM

Chain of Cannabinoid receptor 1 (Homo sapiens) (P21554 whole entry): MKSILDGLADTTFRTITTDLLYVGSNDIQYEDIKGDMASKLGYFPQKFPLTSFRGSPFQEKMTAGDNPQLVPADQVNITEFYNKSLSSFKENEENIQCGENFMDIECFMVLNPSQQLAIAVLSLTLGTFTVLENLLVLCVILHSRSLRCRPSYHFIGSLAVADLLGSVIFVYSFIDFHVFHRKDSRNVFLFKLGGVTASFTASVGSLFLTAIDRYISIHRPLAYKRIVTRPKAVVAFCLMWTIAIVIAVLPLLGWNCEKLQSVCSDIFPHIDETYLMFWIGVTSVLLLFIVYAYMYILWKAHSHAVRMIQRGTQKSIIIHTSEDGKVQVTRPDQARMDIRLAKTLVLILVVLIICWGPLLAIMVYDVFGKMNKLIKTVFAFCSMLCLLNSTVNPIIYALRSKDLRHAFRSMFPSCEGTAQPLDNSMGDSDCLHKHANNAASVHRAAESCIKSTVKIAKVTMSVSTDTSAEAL

## O=C(N1CCS(=O)(=O)CC1)N1C[C@H](c2ccc(OC(F)(F)F)cc2)C[C@H](c2nc(C3CC3)no2)C1 [BAY-386]
[1]
  % Inhibition of Control Agonist Response (Mean n=2): 80.7%
  % of Control Agonist Response (Mean n=2): -267%
[2]
  residual activity: 92%
[3]
  residual activity: 100%
[4]
  residual activity: 98%
[5]
  residual activity: 99%
[6]
  residual activity: 96%
[7]
  residual activity: 96%
[8]
  residual activity: 100%
[9]
  residual activity: 100%
[10]
  residual activity: 0%
[11]
  residual activity: 100%
[12]
  residual activity: 90%
[13]
  residual activity: 100%
[14]
  residual activity: 100%
[15]
  residual activity: 95%
[16]
  residual activity: 100%
[17]
  residual activity: 92%
[18]
  residual activity: 100%
[19]
  residual activity: 100%
[20]
  residual activity: 100%
[21]
  residual activity: 100%
[22]
  residual activity: 97%
[23]
  residual activity: 88%
[24]
  residual activity: 100%
[25]
  residual activity: 100%
[26]
  residual activity: 100%
[27]
  residual activity: 100%
[28]
  residual activity: 100%
[29]
  residual activity: 100%
[30]
  residual activity: 100%
[31]
  residual activity: 89%
[32]
  residual activity: 100%
[33]
  residual activity: 100%
[34]
  residual activity: 100%
[35]
  residual activity: 100%
[36]
  residual activity: 68%
[37]
  residual activity: 100%
[38]
  residual activity: 94%
[39]
  residual activity: 100%
[40]
  residual activity: 88%
[41]
  residual activity: 73%
[42]
  residual activity: 100%
[43]
  residual activity: 96%
[44]
  inhibition: 5.09%
[45]
  inhibition: 8.68%

## Cc1noc([C@H]2C[C@@H](c3ccc(C(F)(F)F)cc3)CN(C(=O)N3CCS(=O)(=O)C3)C2)n1 [BAY-448]
[1]
  % Inhibition of Control Agonist Response (Mean n=2): -0.6%
  % of Control Agonist Response (Mean n=2): -17.6%
[2]
  residual activity: 100%
[3]
  residual activity: 100%
[4]
  residual activity: 100%
[5]
  residual activity: 100%
[6]
  residual activity: 100%
[7]
  residual activity: 100%
[8]
  residual activity: 100%
[9]
  residual activity: 100%
[10]
  residual activity: 100%
[11]
  residual activity: 100%
[12]
  residual activity: 100%
[13]
  residual activity: 100%
[14]
  residual activity: 100%
[15]
  residual activity: 100%
[16]
  residual activity: 100%
[17]
  residual activity: 100%
[18]
  residual activity: 100%
[19]
  residual activity: 99%
[20]
  residual activity: 100%
[21]
  residual activity: 62%
[22]
  residual activity: 100%
[23]
  residual activity: 98%
[24]
  residual activity: 100%
[25]
  residual activity: 100%
[26]
  residual activity: 65%
[27]
  residual activity: 94%
[28]
  residual activity: 92%
[29]
  residual activity: 100%
[30]
  residual activity: 100%
[31]
  residual activity: 100%
[32]
  residual activity: 70%
[33]
  residual activity: 100%
[34]
  residual activity: 100%
[35]
  residual activity: 66%
[36]
  residual activity: 100%
[37]
  residual activity: 100%
[38]
  residual activity: 100%
[39]
  residual activity: 100%
[40]
  residual activity: 100%
[41]
  residual activity: 100%
[42]
  residual activity: 100%
[43]
  residual activity: 100%
[44]
  inhibition: -2.97%
[45]
  inhibition: 5.57%

From ChEMBL document CHEMBL4507269, “Data for DCP probe BAY-386” (2021)
